Values quoted from earlier work, collected in article PMC4807944 (International Journal of Nanomedicine, 2016).

- Aqueous solubility: 1 to 2 µg/mL
Compound: C=CC[C@@H]1/C=C(\C)C[C@H](C)C[C@H](OC)[C@H]2O[C@@](O)(C(=O)C(=O)N3CCCC[C@H]3C(=O)O[C@H](/C(C)=C/[C@@H]3CC[C@@H](O)[C@H](OC)C3)[C@H](C)[C@@H](O)CC1=O)[C@H](C)C[C@@H]2OC [FK506, Tacrolimus]
